Where two headings read alike, the source gives them in different places.
How the values were obtained:
[1] = system: twelve tested GBM cell lines; assay: GBM cell line viability, panel of twelve tested cell lines; type: cell-based; conditions: in combination with 500 nM vorinostat
Procedure: In vitro experiments were devised in which a series of GBM cell lines representative for MGMT negative and MGMT positive tumour cells were used.
Compounds: 1-100 µM EDO-S101, 1-50 µM temozolomide (TMZ), 1-50 µM temozolomide + 500 nM vorinostat, 1-40 µM bendamustine, 1-40 µM bendamustine and 500 nM vorinostat.
Twelve glioblastoma cell lines representing grade III and IV gliomas and with different expression of MGMT, drug and radiotherapy sensitivity and five patient derived glioblastoma stem, cells were used (see above). […] Spheres were counted 5 days after treatment under an inverted microscope at ×4 magnification. A sphere was counted if it had at least 15 cells.
Cells were seeded at a density of 2 × 10^4 cells/ml in 24 well plates. […] Cells trypsinized and resuspended in 1.0 ml of saline were counted using the NucleoCounterTM NC-100 (automated cell counter systems, Chemotec, Cydevang, DK) in order to evaluate cell viability. […] IC50 values were calculated by the GraFit method (Erithacus Software Limited, Staines, UK). Cell viability was measured with the 3-(4,5 dimethylthiazol-2-yl)-2,5-diphenyl tetrazolium bromide (MTT; Sigma-Aldrich) assay.
IC50 and IC20 values for all twelve cell lines against bendamustine and vorinostat were also determined as described above. […]

[2] = CNS pharmacokinetics by blood and brain-ventricle microdialysis, CE-UV; type: in vivo, Sprague-Dawley Rats; conditions: Sprague-Dawley, rat; for Cmax: intravenous, 40 mg/kg tail vein injection; for AUC(0-t): read-out: AUC (0-12) (converted); for half-life: iv, 40 mg/kg
Procedure: CNS pharmacokinetics was determined in rats after a tail vein injection of EDO-S101 at 40 mg/kg. Microdialysate samples were collected from the blood and a ventricle of the brain via microdialysis probes at 18 time intervals. The drug concentrations in these samples were determined by capillary electrophoresis with UV detection (CE-UV) followed by calculations for various pharmacokinetic parameters.
Six rats were anesthetized with gasiform isoflurane (1% isoflurane in a mixture of 20% oxygen and 80% nitrogen gas) and immobilized in a stereotaxic frame (KOPF Instruments, Tujunga, CA). Anaesthesia was maintained during the entire procedure. Each guide cannula (CMA Microdialysis Inc., Acton, MA) was stereotactically implanted into the lateral ventricle (AP -0.9, L 1.6, V 3.4, relative to bregma and skull), then secured to the skull by screws and dental cement. Following surgery, each rat was housed individually with food and water ad libitum for 3 days for recovery from cannulation surgery. Microdialysis experiments were carried out on conscious, freely moving rat. On the day of the experiment, the stylet in the guide cannula was replaced with the microdialysis probe (CMA/11 with 4 mm membrane, CMA Microdialysis Inc., Acton, MA) and a vascular microdialysis probe (CMA/20 with 4 mm membrane, CMA Microdialysis Inc, Acton, MA)) was implanted into the jugular vein. The probes had inlet tubes connected to syringes to deliver artificial cerebrospinal fluid (146 mM NaCl, 1.2 mM CaCl2, 3 mM KCI, 1 mM MgCl2, 1.9 mM Na2HPO4, 0.1 mM NaH2PO4, pH 7.4) into the ventricle and Dulbecco’s phosphate-buffered saline (D-PBS) into the blood at 0.5 µl/min flow rate. The outlet tubes were connected to a microfraction collector for collecting the microdailysates at 4° C. The rats were allowed to recover for at least 24 hours prior to dosing. Eighteen samples were collected over 3 hours after EDO-S101 injection (intravenously). All samples were applied to the capillary electrophoresis with UV detection (CE-UV) for the determination of concentration of EDO-S101 in the cerebrospinal fluid (CSF) and blood. The rats were sacrificed using CO2 inhalation after the experiment. The position of the probe was verified by visual inspection at the end of each experiment.
EDO-S101 in the microdialysate were measured by CE-UV (Agilent 3D CE). Briefly, the capillaries were preconditioned with 1 M sodium hydroxide for 2 min, water for 2 min and running buffer [100 mmol/l solution of ammonium acetate (adjust to pH 3.1 with acetic acid)-acetonitrile (50:50, v/v) ] for 3 min. The samples were injected at a pressure of 0.7 psi for 5 s and the injection volume was approximately 5 nl. After injection, EDO-S101 was separated in a fused silica capillary of 50 µm I.D. and 50/65 cm length (effective length/total length) under 15 kv and 25° C. The absorbance from EDO-S101 was detected with UV at […]. […].
To perform a statistical analysis on the data, a two-way repeated measures ANOVA followed by Tukey’s test was used. P<0.05 was considered significant. CNS penetration is determined as the ratio of CSF and blood area under the curve (AUC).

[3] = CSF (brain lateral ventricle microdialysate), Brain (CSF), 40 mg/kg iv
[4] = blood (jugular vein microdialysate), Blood, 40 mg/kg iv

| SMILES | sensitivity of all cell lines (FIG. 5) [1] | Cmax ([2]; CSF (brain lateral ventricle microdialysate), Brain (CSF)) [µM] | Tmax [2, 3] [min] | AUC(0-t) [2, 3] [µM·h] | Cmax ([2]; blood (jugular vein microdialysate), Blood) [µM] | Tmax [2, 4] [min] | AUC(0-t) [2, 4] [µM·h] | half-life [2, 3] [min] | half-life [2, 4] [min] | Kp ([2]; ratio of CSF and blood AUC, 40 mg/kg iv, read-out: AUC ratio (Brain:Blood), CNS penetration) |
| --- | --- | --- | --- | --- | --- | --- | --- | --- | --- | --- |
| Cn1c(CCCC(=O)O)nc2cc(N(CCCl)CCCl)ccc21 [bendamustine] | highly sensitive except Mz54 and T98G | – | – | – | – | – | – | – | – | – |
| Cn1c(CCCCCCC(=O)NO)nc2cc(N(CCCl)CCCl)ccc21 [EDO-S101] | – | 11.2 | 5.67 | 2.27 | 184 | 2.33 | 13.7 | ~9 | ~6 | 0.165 |

From US20230049350A1, “COMPOUNDS FOR TREATING BRAIN CANCER” (Purdue Pharmaceutical Products L.P., priority 2014, published 2023)
